Drawing on ChEMBL document CHEMBL5678807, “A selective jumonji H3K27 demethylase inhibitor modulates the proinflammatory macrophage response” (Nature, 2012), this text covers Activity and XC50 for 4 molecules.

The subject of series [1] is Macrophage. The series can be described thus: Antiinflammatory activity in human primary macrophages assessed as effect on LPS-induced IL1F5 gene expression at 30 uM measured after 2 hrs by RT-PCR array (reference value: 2464 a.u.). It is filed as functional.
The subject of series [2] is Macrophage. Briefly: Antiinflammatory activity in human primary macrophages assessed as effect on LPS-induced IL11 gene expression at 30 uM measured after 2 hrs by RT-PCR array (reference value: 6 a.u.). It is filed as functional.
In series [3] the test system is Macrophage. The series can be described thus: Cytotoxicity against LPS-induced human primary macrophages assessed as effect on cell viability measured after 4 hrs by WST-1 assay. The format is toxicity, cell-based. A general note: Tetrazolium assays rely on reduction of a dye to a coloured formazan, in cell work by metabolically active cells.
Series [4] relates to Macrophage. Briefly: Antiinflammatory activity in human primary macrophages assessed as effect on LPS-induced TNFSF8 gene expression at 30 uM measured after 2 hrs by RT-PCR array (reference value: 248127 a.u.). The format is functional.
Series [5] has as its system Macrophage. Briefly: Antiinflammatory activity in human primary macrophages assessed as effect on LPS-induced IL12B gene expression at 30 uM measured after 2 hrs by RT-PCR array (reference value: 17908 a.u.). It is filed as functional.
In series [6] the test system is Macrophage. Briefly: Antiinflammatory activity in human primary macrophages assessed as effect on LPS-induced FIGF gene expression at 30 uM measured after 2 hrs by RT-PCR array (reference value: 60 a.u.). It is filed as functional.
The test system of series [7] is Macrophage. The series can be described thus: Antiinflammatory activity in human primary macrophages assessed as effect on LPS-induced IFNG gene expression at 30 uM measured after 2 hrs by RT-PCR array (reference value: 240 a.u.). It is filed as functional.
In series [8] the test system is Macrophage. Briefly: Antiinflammatory activity in human primary macrophages assessed as effect on LPS-induced TGFA gene expression at 30 uM measured after 2 hrs by RT-PCR array (reference value: 3224 a.u.). The format is functional.
Series [9] concerns Macrophage. Briefly: Antiinflammatory activity in human primary macrophages assessed as effect on LPS-induced BMP6 gene expression at 30 uM measured after 2 hrs by RT-PCR array (reference value: 1526 a.u.). It is filed as functional.
In series [10] the test system is Macrophage. The series can be described thus: Antiinflammatory activity in human primary macrophages assessed as effect on LPS-induced NODAL gene expression at 30 uM measured after 2 hrs by RT-PCR array (reference value: 125 a.u.). It is filed as functional.
The target in series [11] is T1, Muscarinic acetylcholine receptor M2 (Homo sapiens, UniProt P08172).
T1 sequence (P08172 whole entry): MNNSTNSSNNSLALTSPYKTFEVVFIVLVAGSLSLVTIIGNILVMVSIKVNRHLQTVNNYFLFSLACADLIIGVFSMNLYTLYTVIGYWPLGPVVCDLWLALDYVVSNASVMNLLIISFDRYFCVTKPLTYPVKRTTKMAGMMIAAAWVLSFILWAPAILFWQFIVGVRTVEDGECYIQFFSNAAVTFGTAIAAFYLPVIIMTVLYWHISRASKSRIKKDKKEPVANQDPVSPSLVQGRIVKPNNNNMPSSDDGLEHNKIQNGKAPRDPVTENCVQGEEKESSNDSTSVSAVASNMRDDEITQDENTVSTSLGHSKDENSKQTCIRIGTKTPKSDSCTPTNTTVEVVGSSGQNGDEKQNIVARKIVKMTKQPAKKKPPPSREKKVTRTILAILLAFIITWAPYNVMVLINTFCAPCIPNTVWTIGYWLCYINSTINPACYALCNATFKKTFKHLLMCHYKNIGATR
Briefly: Agonist activity at human CHRM2 by intracellular Ca fluorescence assay. It is filed as functional, cell-based.

The target of series [12] is Aryl hydrocarbon receptor (Homo sapiens, UniProt P35869). Briefly: Agonist activity at human AhR by TR-FRET assay. (In general: Time-resolved FRET reads energy transfer from a long-lived donor to a nearby acceptor.)
Another series has as its target Histone deacetylase 9 (Homo sapiens, UniProt Q9UKV0). Briefly: Inhibition of human HDAC9 by FLINT assay.
In series [13] the target is T2, Muscarinic acetylcholine receptor M1 (Homo sapiens, UniProt P11229).
T2 sequence (P11229 whole entry): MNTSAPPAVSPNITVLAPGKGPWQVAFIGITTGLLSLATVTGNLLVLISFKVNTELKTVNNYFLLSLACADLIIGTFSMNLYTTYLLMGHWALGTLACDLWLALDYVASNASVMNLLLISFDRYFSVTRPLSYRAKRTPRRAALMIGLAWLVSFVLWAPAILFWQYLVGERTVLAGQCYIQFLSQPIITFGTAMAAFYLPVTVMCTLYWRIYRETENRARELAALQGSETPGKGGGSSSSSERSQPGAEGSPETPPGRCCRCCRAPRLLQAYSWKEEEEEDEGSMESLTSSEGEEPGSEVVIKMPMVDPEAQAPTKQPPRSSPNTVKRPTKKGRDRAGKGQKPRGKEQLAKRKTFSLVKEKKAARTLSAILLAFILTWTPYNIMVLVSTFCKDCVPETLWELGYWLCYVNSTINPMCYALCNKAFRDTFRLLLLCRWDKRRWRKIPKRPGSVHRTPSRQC
The series can be described thus: Antagonist activity at human CHRM1 by intracellular Ca fluorescence assay. The format is functional, cell-based.

The target of series [14] is Amine oxidase [flavin-containing] B (Homo sapiens, UniProt P27338). The series can be described thus: Inhibition of human MAOB by FLINT assay.
The target of the next series is Vasopressin V1a receptor (Homo sapiens, UniProt P37288). The series can be described thus: Antagonist activity at human vasopressin V1a by intracellular Ca luminescence assay. It is filed as functional, cell-based.
Series [15] has as its target Sodium-dependent serotonin transporter (Homo sapiens, UniProt P31645). Briefly: Binding affinity to human SERT by SPA.
The target in series [16] is Potassium voltage-gated channel subfamily A member 5 (Homo sapiens, UniProt P22460). Briefly: Blockade of human Kv1.5 by electrophysiology assay.
The target in series [17] is Amine oxidase [flavin-containing] A (Homo sapiens, UniProt P21397). Briefly: Inhibition of human MAOA by FLINT assay.
The target in series [18] is T2, Muscarinic acetylcholine receptor M1. The series can be described thus: Agonist activity at human CHRM1 by intracellular Ca fluorescence assay. It is filed as functional, cell-based.
Series [19] concerns the target Voltage-dependent L-type calcium channel subunit alpha-1C (Homo sapiens, UniProt Q13936). The series can be described thus: Antagonist activity at human CaV1.2 (L-type) by intracellular Ca fluorescence assay. The format is cell-based.
The target in series [20] is T3, 5-hydroxytryptamine receptor 2C (Homo sapiens, UniProt P28335).
T3 sequence (P28335 whole entry): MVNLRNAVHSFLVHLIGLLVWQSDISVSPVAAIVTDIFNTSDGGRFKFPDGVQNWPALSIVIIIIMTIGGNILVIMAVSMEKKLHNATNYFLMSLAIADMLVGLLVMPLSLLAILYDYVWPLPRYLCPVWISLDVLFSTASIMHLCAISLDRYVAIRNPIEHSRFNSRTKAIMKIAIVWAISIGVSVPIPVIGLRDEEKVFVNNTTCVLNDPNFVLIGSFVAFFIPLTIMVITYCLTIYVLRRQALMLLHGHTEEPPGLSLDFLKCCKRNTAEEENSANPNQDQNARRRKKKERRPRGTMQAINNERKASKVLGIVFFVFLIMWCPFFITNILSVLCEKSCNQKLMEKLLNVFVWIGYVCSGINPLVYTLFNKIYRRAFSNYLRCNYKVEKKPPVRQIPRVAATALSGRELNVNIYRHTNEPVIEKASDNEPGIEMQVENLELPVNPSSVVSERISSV
Briefly: Antagonist activity at human 5-HT2C by intracellular Ca luminescence assay. The format is functional, cell-based.

Series [21] concerns the target Sodium channel protein type 5 subunit alpha (Homo sapiens, UniProt Q14524). Briefly: Blockade of human NaV1.5 by electrophysiology assay.

Molecules are shown by their SMILES. A value given as a limit tells only on which side of the number the result lay.

Sequence of Amine oxidase [flavin-containing] B (P27338 whole entry): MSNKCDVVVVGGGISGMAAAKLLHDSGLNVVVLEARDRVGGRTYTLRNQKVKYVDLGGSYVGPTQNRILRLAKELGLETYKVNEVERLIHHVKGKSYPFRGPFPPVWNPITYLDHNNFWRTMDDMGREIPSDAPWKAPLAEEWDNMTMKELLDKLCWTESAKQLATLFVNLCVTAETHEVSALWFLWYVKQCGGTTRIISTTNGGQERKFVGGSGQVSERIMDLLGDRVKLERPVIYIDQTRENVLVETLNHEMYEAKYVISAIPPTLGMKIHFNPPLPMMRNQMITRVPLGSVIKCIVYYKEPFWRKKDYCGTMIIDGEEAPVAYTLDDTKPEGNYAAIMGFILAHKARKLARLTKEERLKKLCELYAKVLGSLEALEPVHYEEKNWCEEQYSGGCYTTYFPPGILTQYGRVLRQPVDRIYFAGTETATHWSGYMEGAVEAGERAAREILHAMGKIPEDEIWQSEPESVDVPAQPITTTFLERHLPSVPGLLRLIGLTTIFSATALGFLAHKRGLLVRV
Sequence of Sodium channel protein type 5 subunit alpha (Q14524 whole entry): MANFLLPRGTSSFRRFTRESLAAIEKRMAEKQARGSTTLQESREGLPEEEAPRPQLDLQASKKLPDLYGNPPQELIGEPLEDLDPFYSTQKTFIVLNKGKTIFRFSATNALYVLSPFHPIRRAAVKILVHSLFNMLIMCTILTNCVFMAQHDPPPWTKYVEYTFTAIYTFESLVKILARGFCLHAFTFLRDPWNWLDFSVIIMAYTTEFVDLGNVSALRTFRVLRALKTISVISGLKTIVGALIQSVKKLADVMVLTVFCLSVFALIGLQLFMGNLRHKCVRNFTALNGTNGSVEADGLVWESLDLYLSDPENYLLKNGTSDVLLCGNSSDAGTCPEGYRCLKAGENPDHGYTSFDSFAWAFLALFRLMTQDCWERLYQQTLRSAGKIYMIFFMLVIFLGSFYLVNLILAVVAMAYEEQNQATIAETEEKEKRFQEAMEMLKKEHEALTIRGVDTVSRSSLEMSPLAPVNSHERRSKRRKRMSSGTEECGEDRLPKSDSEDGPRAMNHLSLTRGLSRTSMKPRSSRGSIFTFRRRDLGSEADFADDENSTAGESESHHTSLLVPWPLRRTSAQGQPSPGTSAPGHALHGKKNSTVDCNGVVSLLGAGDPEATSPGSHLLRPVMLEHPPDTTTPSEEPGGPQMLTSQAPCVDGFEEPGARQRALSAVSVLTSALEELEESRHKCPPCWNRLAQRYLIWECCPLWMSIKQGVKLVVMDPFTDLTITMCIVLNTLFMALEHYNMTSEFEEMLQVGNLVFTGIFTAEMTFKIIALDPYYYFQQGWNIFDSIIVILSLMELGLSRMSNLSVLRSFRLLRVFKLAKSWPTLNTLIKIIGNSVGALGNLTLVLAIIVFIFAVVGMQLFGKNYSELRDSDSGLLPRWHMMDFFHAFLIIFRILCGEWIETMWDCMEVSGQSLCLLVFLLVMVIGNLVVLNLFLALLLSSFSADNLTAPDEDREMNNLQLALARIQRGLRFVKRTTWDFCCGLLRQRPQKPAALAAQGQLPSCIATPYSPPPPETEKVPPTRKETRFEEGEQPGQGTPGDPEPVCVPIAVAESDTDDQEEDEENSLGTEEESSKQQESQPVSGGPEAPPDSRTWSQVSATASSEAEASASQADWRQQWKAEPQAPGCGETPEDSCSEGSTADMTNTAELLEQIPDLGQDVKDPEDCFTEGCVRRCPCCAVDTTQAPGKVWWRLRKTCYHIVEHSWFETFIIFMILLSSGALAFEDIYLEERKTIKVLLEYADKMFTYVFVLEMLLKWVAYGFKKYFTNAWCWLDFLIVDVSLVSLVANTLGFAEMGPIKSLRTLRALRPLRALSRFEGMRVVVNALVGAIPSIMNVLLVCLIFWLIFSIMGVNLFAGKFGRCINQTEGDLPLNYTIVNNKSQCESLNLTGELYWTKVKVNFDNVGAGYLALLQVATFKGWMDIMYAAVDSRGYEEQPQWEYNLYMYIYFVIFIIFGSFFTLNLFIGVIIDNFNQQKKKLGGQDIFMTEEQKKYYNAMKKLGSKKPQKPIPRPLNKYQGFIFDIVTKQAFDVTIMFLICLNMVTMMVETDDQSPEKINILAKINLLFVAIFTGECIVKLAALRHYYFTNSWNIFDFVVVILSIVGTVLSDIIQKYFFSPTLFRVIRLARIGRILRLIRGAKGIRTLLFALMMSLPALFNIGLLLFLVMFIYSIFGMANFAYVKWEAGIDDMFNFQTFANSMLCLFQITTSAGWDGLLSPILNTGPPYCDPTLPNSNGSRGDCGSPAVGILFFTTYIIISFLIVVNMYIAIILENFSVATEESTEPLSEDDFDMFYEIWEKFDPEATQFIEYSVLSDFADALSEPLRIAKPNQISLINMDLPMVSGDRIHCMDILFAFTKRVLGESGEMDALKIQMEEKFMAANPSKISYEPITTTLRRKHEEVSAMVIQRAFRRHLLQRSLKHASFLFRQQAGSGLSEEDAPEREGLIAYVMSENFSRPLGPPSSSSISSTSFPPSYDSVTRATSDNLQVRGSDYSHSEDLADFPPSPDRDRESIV
Sequence of Aryl hydrocarbon receptor (P35869 whole entry): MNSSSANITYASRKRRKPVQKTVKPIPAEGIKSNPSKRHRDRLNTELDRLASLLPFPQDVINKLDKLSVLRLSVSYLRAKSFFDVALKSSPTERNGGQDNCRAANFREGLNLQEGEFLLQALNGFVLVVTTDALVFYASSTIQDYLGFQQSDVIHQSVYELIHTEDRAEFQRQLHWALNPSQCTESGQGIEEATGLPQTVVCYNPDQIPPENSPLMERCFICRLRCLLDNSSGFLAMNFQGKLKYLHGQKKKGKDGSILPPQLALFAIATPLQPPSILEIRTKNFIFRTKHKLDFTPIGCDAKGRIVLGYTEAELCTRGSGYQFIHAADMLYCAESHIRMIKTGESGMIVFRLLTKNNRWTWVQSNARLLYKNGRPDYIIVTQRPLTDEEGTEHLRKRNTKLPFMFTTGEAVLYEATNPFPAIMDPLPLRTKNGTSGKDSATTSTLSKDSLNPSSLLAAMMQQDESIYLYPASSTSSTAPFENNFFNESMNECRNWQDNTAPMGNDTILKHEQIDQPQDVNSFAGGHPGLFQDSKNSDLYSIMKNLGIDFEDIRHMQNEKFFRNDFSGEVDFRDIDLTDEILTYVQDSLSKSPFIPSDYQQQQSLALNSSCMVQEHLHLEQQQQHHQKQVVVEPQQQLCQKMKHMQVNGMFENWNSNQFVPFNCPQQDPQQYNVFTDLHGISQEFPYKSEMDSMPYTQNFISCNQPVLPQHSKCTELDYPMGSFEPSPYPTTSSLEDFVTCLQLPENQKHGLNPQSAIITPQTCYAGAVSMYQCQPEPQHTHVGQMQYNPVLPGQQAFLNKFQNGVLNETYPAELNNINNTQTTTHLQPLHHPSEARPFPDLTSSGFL
Sequence of Vasopressin V1a receptor (P37288 whole entry): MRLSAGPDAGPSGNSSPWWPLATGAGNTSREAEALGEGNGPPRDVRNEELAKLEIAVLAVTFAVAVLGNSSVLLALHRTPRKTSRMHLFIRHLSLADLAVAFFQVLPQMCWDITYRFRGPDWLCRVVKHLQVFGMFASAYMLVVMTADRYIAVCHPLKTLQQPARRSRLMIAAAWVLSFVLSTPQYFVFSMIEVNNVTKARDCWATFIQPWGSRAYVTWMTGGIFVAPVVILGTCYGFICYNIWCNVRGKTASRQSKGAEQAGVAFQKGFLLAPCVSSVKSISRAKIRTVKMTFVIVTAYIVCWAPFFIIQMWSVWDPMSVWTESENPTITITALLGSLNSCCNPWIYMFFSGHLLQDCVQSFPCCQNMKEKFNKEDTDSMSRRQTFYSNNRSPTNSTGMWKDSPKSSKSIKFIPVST
Sequence of Amine oxidase [flavin-containing] A (P21397 whole entry): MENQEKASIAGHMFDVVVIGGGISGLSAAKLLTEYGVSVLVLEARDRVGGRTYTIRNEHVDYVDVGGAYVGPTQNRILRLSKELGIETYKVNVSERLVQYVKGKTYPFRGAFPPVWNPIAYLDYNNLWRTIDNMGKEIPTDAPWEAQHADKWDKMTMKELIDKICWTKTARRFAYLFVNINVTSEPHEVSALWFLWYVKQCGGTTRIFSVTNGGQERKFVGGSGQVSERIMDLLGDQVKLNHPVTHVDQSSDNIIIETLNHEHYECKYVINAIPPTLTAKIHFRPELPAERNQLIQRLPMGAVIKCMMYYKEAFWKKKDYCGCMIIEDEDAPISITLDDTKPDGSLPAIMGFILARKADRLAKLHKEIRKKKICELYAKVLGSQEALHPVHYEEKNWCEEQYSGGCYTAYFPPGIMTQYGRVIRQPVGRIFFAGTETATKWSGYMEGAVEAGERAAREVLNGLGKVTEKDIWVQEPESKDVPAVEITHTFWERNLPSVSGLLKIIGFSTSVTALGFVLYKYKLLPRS
Sequence of Sodium-dependent serotonin transporter (P31645 whole entry): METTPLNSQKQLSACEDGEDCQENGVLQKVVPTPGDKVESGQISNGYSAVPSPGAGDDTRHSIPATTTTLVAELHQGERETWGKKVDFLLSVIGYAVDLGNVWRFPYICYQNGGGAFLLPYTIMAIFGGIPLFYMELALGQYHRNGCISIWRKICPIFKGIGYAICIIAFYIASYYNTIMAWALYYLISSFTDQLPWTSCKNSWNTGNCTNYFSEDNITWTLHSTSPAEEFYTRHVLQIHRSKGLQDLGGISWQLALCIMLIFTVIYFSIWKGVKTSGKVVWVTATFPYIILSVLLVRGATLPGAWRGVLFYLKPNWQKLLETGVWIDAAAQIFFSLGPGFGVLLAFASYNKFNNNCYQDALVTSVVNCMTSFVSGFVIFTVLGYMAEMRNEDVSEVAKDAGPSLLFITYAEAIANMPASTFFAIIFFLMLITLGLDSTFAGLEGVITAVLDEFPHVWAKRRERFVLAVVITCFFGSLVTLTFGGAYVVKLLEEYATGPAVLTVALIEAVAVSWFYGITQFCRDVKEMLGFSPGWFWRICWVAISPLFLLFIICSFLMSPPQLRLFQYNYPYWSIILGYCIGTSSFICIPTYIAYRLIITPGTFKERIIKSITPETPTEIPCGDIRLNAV

Turning to `CCOC(=O)CCNc1cc(N2CCc3ccccc3CC2)nc(-c2ccccn2)n1`, the Activity is listed as 233 a.u with Macrophage [1]; 403 a.u in the series with Macrophage [2]; “Non-Toxic” with Macrophage [3]; 17105 a.u in the series with Macrophage [4]; 3068 a.u in the series with Macrophage [5]; 19 a.u in the series on Macrophage [6]. For the same molecule, the Activity in the series on Macrophage [7] is 298 a.u; with Macrophage [8], 3241 a.u; with Macrophage [9], 293 a.u; in the series on Macrophage [10], 197 a.u.

For the molecule `O=C(O)CCNc1cc(N2CCc3ccccc3CC2)nc(-c2ccccn2)n1`, the XC50 is more than 16 µM in [11]; more than 100 µM in [12]; more than 300 µM on Histone deacetylase 9; more than 16 µM in series [13]; 25 µM in series [14]; more than 50 µM at Vasopressin V1a receptor. The XC50 is more than 100 µM in series [15]; more than 50 µM in series [16]; 50 µM in series [17]; more than 16 µM in [18]; more than 16 µM in [19]; more than 40 µM in [20]. Also, in series [21], the XC50 was found to be 79 µM. The Activity result in the series on Macrophage [3] is “Non-Toxic”.

Consider `O=C(O)CCNc1cc(N2CCc3ccccc3CC2)nc(-c2cccnc2)n1`, for which the XC50 was more than 16 µM in series [11]; 0.32 µM in [12]; more than 300 µM at Histone deacetylase 9; more than 16 µM in [13]; 25 µM in series [14]; 4.9 µM at Vasopressin V1a receptor. In addition, the XC50 is more than 100 µM in series [15]; more than 50 µM in series [16]; more than 100 µM in series [17]; more than 16 µM in [18]; more than 16 µM in series [19]; more than 40 µM in series [20]. This molecule showed an XC50 in series [21] of 50 µM. Also, in the series with Macrophage [3], the Activity result is recorded as “Non-Toxic”.

For `CCOC(=O)CCNc1cc(N2CCc3ccccc3CC2)nc(-c2cccnc2)n1`, the Activity in the series on Macrophage [1] was 2254 a.u; in the series with Macrophage [2], 32 a.u; with Macrophage [3], “Non-Toxic”; in the series with Macrophage [4] it was 115933 a.u; in the series on Macrophage [5], 17395 a.u; in the series with Macrophage [6], 87 a.u. Besides, the Activity came to 60 a.u with Macrophage [7], 2862 a.u in the series on Macrophage [8], 1399 a.u with Macrophage [9] and 45 a.u in the series with Macrophage [10].
